Measurements as given in patent US5286864A, “Quinuclidines, their use as medicaments and processes for their preparation” (Boehringer Ingelheim KG, priority 1988, dated 1994).

Tests used:
[1] = molecular target: muscarine receptors; assay: Receptor bonding studies (radioligand L(+)cis-[2-methyl-^3 H]-N,N,N-trimethyl-1,3-dioxolane-4-methanammonium iodide); assay type: binding; conditions: cerebral cortex (rat); radioligand L(+)cis-[2-methyl-^3 H]-N,N,N-trimethyl-1,3-dioxolane-4-methanammonium iodide NET-647
Description: The compounds of the general formula I have useful pharmacological properties.
The receptor bonding studies were performed in accordance with the following literature reference [A. Closse, H. bittiger, D. Langenegger and A. Wahner; Naunyn-Schmiedeberg's Arch. Pharmacol. 335,372-377 (1987)].
Receptor bonding studies
L(+)cis-[2-methyl-^3 H]-N,N,N-trimethyl-1,3-
dioxolane-4-methanammonium iodide NET-647,
NEN (New England Nuclear DU PONT).
Organ: Cerebral cortex (rat)

[2] = system: conscious rabbit; assay: EEG (electroencephalogram) of the conscious rabbit; assay type: in vivo; conditions: 3 mg/kg i.v.

SMILES | Ki [1] [nM] | arousal reaction in the EEG [2]
C#CCOC1CN2CCC1CC2 (stereo not drawn) [Example 1, 3-(2-Propynyloxy)-1-azabicyclo[2,2,2]octane] | 159 | exhibits an arousal reaction typical of cholinomimetics
CCCOC1CN2CCC1CC2 (stereo not drawn) [nC3 H7] | 220 | 
